For 6 compounds, EC50, Ki and Kd results are on record in publication PMC7053488 (Cell, 2019).

Each structure is given as a SMILES string.

The term EC50 denotes the concentration needed to bring the measured effect to its halfway point. The low end stands for higher potency in that assay, the high end for lower potency in that assay. What is called Ki is a dissociation constant, usually derived from enzyme kinetics or from competition with a known ligand. Lower therefore signals a stronger hold on the target. A word on the Kd: it is the equilibrium constant for the complex coming apart. Low readings indicate higher affinity, high ones lower affinity.

The target in assay [1] is T1, rat P2X7 receptor (rP2X7) (Rattus norvegicus, UniProt Q64663).
T1 sequence (Q64663 1-595): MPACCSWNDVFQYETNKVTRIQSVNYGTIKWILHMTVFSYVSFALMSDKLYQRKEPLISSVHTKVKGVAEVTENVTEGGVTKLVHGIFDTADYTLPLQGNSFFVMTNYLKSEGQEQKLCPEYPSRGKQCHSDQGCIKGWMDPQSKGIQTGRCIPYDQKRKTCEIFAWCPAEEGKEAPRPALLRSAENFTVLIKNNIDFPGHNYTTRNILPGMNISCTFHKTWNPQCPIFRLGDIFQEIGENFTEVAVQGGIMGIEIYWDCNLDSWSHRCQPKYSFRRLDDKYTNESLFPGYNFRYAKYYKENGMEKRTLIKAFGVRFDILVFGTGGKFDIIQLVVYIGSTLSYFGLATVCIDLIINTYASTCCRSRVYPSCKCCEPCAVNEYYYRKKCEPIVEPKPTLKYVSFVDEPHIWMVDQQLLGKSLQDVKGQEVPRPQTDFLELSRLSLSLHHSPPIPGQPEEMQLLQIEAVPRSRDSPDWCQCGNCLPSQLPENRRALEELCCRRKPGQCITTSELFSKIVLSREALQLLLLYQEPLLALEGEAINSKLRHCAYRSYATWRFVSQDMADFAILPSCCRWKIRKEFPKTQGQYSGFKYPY
Description: cryo-EM structure. In kind it is cell-based.

The target of assay [2] is rat P2X7 receptor, rP2X7-ΔBallast (Rattus norvegicus, UniProt Q64663).
Assay [3] deals with T1, rat P2X7 receptor (rP2X7). Description: SPA competition with 3H-GDP. In kind it is binding.
For assay [4], the target named is T1, rat P2X7 receptor (rP2X7). Description: cryo-EM structure. In kind it is binding.

For the compound `Nc1ncnc2c1ncn2[C@@H]1O[C@H](COP(=O)(O)OP(=O)(O)OP(=O)(O)O)[C@@H](O)[C@H]1O` [ATP], the values for the concentration giving a half-maximal response (EC50) in assay [1] and in assay [2] were 42 ± 3 µM and 52 ± 11 µM, respectively.

For the compound `Nc1ccn([C@@H]2O[C@H](COP(=O)(O)OP(=O)(O)OP(=O)(O)O)[C@@H](O)[C@H]2O)c(=O)n1` [CTP], the Ki in assay [3] came to 130 ± 3 µM.

In assay [4], `Nc1nc2c(ncn2[C@@H]2O[C@H](COP(=O)(O)OP(=O)(O)O)[C@@H](O)[C@H]2O)c(=O)[nH]1` [GDP] yielded a Kd of 0.04 ± 0.01 µM.

In turn, `Nc1nc2c(ncn2[C@@H]2O[C@H](COP(=O)(O)OP(=O)(O)OP(O)(O)=S)[C@@H](O)[C@H]2O)c(=O)[nH]1` [GTP-γ-S] came in with a Ki in assay [3] of 0.1 ± 0.01 µM.

As to `Nc1nc2c(ncn2[C@@H]2O[C@H](COP(=O)(O)OP(=O)(O)OP(=O)(O)O)[C@@H](O)[C@H]2O)c(=O)[nH]1` [GTP], the Ki in assay [3] amounted to 0.15 ± 0.015 µM.

`O=c1ccn([C@@H]2O[C@H](COP(=O)(O)OP(=O)(O)OP(=O)(O)O)[C@@H](O)[C@H]2O)c(=O)[nH]1` [UTP]: in assay [3], affinity was put at a Ki of 60 ± 10 µM. Compared with the last compound, the Ki is about 400-fold higher.
